Data reported in patent publication US20070071794A1, “DRUGS FOR TREATING DIABETES” (priority 2004, published 2007).

Experiments:
[1] = test system: INS-1 cells derived from pancreatic β cells of rats; experiment: Effect of improving insulin secretion defects in INS-1 cells cultured under high glucose; assay type: cell-based; conditions: for Index of insulin secretion improvement: 25 mM glucose 28 h, then 11.1 mM glucose + amino acid at 10 times RPMI concentration 19 h, secretion in 16.7 mM glucose 2 h, 0 = defective cond., 1 = ordinary cond.; for improvement in insulin secretion defects (significance): secretion defective + amino acid condition, p<0.05
Text: INS-1 cells derived from pancreatic β cells of rats were dispersed in each amount of 2×10^5 cells on a 24-well culture plate, then divided into three groups and cultured under the following conditions. That is:
First Group: Culture on RPMI medium (Non-patent Literature 4) under the ordinary condition.
Second Group: Culture under the secretion defective condition by culture under the high glucose concentration. That is, the glucose concentration was increased under the culture conditions of the first group.
Third Group: Under the culture condition of the second group, culture was conducted so that the end concentration of aspartic acid, cystine, serine, asparagine, isoleucine, histidine, hydroxyproline, glutamic acid or valine in the medium became 10 times as high as the concentration thereof in the RPMI medium.
First Group: ordinary condition
• cultured in 11.1 mM glucose for 28 hours, • cultured in 11.1 mM glucose for 19 hours Second Group: secretion defective condition • cultured in 25 mM glucose for 28 hours, • cultured in 11.1 mM glucose for 19 hours Third Group: secretion defective+amino acid condition • cultured in 25 mM glucose for 28 hours,
cultured in 11.1 mM glucose+amino acids for 19 hours
Those cultured cells were further cultured for 1 hour in KRBH buffer (Non-patent Literature 5), and cultured for 2 hours in KRBH buffer containing 16.7 mM glucose. Then, insulin secretion rate was determined. Under the secretion defective condition of the second group, the insulin secretion rate of […] lowered to about 60% of that under the ordinary condition. The effect of improving insulin secretion defects of amino acids was calculated by the following index. Index of insulin secretion improvement=((insulin secretion of the third group)−(insulin secretion of the second group))/((insulin secretion of the first group)−(insulin secretion of the second group))
(Reference: The index of insulin secretion improvement becomes 0 when the insulin secretion in administration of amino acids is same as that in the secretion defective condition, and it becomes 1 when the insulin secretion in administration of amino acids is same as that in the ordinary condition.)

[2] = test system: INS-1 cells derived from pancreatic β cells of rats; experiment: Insulin secretion of INS-1 cells with aspartic acid combined with an insulin secretagogue; assay type: cell-based; conditions: 5 mM glucose, 2 hours; for insulin secretion rate: n=3, Cond. 1 (no drug) 2.85±0.49; for insulin secretion increase (significance, in words): KRBH buffer, 0.3 μM nateglinide and/or 10 mM aspartic acid, compared to Condition 1 (combination also to Conditions 2, 3)
Method: INS-1 cells derived from pancreatic β cells of rats were dispersed in each amount of 2×10^5 cells on a 24-well culture plate, and cultured on RPMI medium for 48 hours. […] Condition 1: KRBH buffer, 5 mM glucose Condition 2: KRBH buffer, 5 mM glucose, 0.3 μM nateglinide Condition 3: […] Condition 4: […]

GK rats = experiment: Glucose tolerance test in GK rats fed aspartic acid (blood glucose ΔAUC, insulinogenic index); assay type: in vivo; conditions: for ΔAUC (blood glucose, glucose tolerance test): eighth week, oral 1 g/kg glucose after 5 hour fasting, CON group 230
Method: Male GK rats (7 weeks old) were fed in the following groups.
CON Group: 5 GK rats Controlled food was administered.
3AS Group: 5 GK rats Food with 3% aspartic acid was administered.
6AS Group: 5 GK rats Food with 6% aspartic acid was administered.
In the eighth week of administration, the glucose tolerance test (oral administration of 1 g/kg of glucose) was conducted to the rats after 5 hour fasting, and their blood glucose and insulin levels were determined over time.
Insulinogenic index was determined from the results of the glucose tolerance test after eight week administration in Example 2. Insulinogenic index is the value wherein the insulin rate secreted in 15 minutes after adding glucose was divided by the glucose level that increased in 15 minutes after adding glucose.

Compound	Index of insulin secretion improvement [1]	improvement in insulin secretion defects (significance) [1]	also measured
NC(=O)C[C@H](N)C(=O)O [Asn, asparagine]	0.87	significantly improved	–
N[C@@H](CC(=O)O)C(=O)O [Asp, L-aspartic acid]	1.75	significantly improved	insulin secretion rate ([2]; Condition 3: KRBH buffer, 10 mM aspartic acid): 3.69 ± 0.87 ng/mL; insulin secretion increase (significance, in words) [2]: significant insulin secretion increase was not seen; ΔAUC (blood glucose, glucose tolerance test) (GK rats; 3AS group: food with 3% aspartic acid): 190 mg·h/dL; ΔAUC (blood glucose, glucose tolerance test) (GK rats; 6AS group: food with 6% aspartic acid): 140 mg·h/dL; Insulinogenic index (result in words) (GK rats; food with 3% or 6% aspartic acid, eight weeks, insulin secreted / glucose increase in 15 minutes after glucose): improved corresponding to the administered dose; glucose tolerance (result in words) (GK rats; food with 6% aspartic acid, after eight week administration): improvement in the glucose tolerance was seen
N[C@@H](CSSC[C@H](N)C(=O)O)C(=O)O [Cystine, cystine]	1.08	significantly improved	–
N[C@@H](CCC(=O)O)C(=O)O [Glu, glutamic acid]	0.57	significantly improved	–
N[C@@H](Cc1c[nH]cn1)C(=O)O [His, histidine]	0.67	significantly improved	–
O=C(O)[C@@H]1C[C@@H](O)CN1 [Hydroxyproline, hydroxyproline]	0.64	significantly improved	–
CC[C@H](C)[C@H](N)C(=O)O [Ile, isoleucine]	0.84	significantly improved	–
N[C@@H](CO)C(=O)O [Ser, serine]	0.97	significantly improved	–
CC(C)[C@H](N)C(=O)O [Val, valine]	0.35	significantly improved	–
N=C(N)NCCC[C@H](N)C(=O)O [arginine, reference compound]	–	significant improvement in insulin secretion defects was not confirmed	–
CC(C)C[C@H](N)C(=O)O [leucine, reference compound]	–	significant improvement in insulin secretion defects was not confirmed	–
NCCCC[C@H](N)C(=O)O [lysine, reference compound]	–	significant improvement in insulin secretion defects was not confirmed	–
CC(C)[C@H]1CC[C@H](C(=O)N[C@H](Cc2ccccc2)C(=O)O)CC1 [nateglinide, reference compound]	–	–	insulin secretion rate ([2]; Condition 2: KRBH buffer, 0.3 μM nateglinide): 4.34 ± 1.19 ng/mL; insulin secretion increase (significance, in words) [2]: significant insulin secretion increase was not seen
